Entries after “also recorded” stand apart in the source; their conditions may differ. Like-named read-outs stand apart in the source and are kept apart here.
Columns and labels:
[1] = tested on: Angiostrongylus cantonensis first-stage (L1) larvae; assay: Antiparasitic assay with A. cantonensis L1 larvae (motility); format: cell-based; conditions: for EC50: Angiostrongylus cantonensis, read-out: A. cantonensis EC50, L1; for selectivity index, L1: SI = CC50 (human HaCaT cells)/EC50 (L1)
Procedure: (§1) The life cycle of A. cantonensis (NPDN-AC strain) was maintained at the Research Center on Neglected Diseases, Guarulhos University, using either Biomphalaria glabrata (freshwater snails) or Achatina fulica (terrestrial mollusks) as intermediate hosts, and Wistar rats (Rattus norvegicus) as definitive hosts. All animals were maintained under controlled conditions (22 °C, ∼50% humidity) with ad libitum access to food and water.
First-stage larvae (L1) of A. cantonensis were isolated from the feces of infected Wistar rats using the Rugai sedimentation technique, followed by washing in RPMI 1640 medium containing antibiotics. Approximately 50 larvae were transferred to each well of a 96-well plate. Cubebin and albendazole (positive control) were tested starting at 100 μM using a serial dilution format for EC50 determination. Plates were incubated at 21 °C. Untreated larvae served as negative controls. […] Efficacy was defined as ≥60% of larvae becoming immobile after 24 h.
(§2) EC50 and CC50 values were calculated from nonlinear sigmoidal dose–response curves using GraphPad Prism version 8.0 (San Diego, CA). Group differences were analyzed using one-way ANOVA followed by Tukey’s post hoc test. A P-value of <0.05 was considered statistically significant.

[2] = tested on: Angiostrongylus cantonensis infective third-stage (L3) larvae; assay: Antiparasitic assay with A. cantonensis L3 larvae (motility); format: cell-based; conditions: for EC50: read-out: A. cantonensis EC50, L3; for selectivity index, L3: SI = CC50 (human HaCaT cells)/EC50 (L3)
Procedure: as §1
Third-stage larvae (L3) of A. cantonensis were obtained from infected A. fulica via artificial digestion in HCl-pepsin solution, followed by sedimentation using the modified Rugai method. Approximately 50 larvae were added per well in 96-well plates. Cubebin and albendazole were tested starting at 100 μM in a serial dilution format for EC50 estimation. Plates were incubated at 21 °C, and larval viability was assessed at 0 and 24 h using an inverted microscope. […] Efficacy was defined as ≥60% immobility after 24 h.
as §2

[3] = Cytotoxicity assay (MTT), Vero cells; format: cell-based, monkey; conditions: monkey, Vero cells, MTT, 48 h exposure per figure legend (method: 24 h), read-out: mammalian cells CC50, monkey
Procedure: (§3) HaCaT cells (human keratinocytes) were obtained from the Banco de Células do Rio de Janeiro (Duque de Caxias, RJ, Brazil), and Vero cells (monkey kidney epithelial cells) were purchased from the American Type Culture Collection (ATCC CCL-81; Manassas, V). Cells were cultured in DMEM supplemented with 2 mM L-glutamine (Vitrocell), 100 U/mL penicillin, 100 μg/mL streptomycin, and 10% heat-inactivated fetal bovine serum, and maintained at 37 °C in a humidified atmosphere containing 5% CO2.
(§4) Cytotoxicity was evaluated using the MTT assay as previously described. Briefly, cells were seeded into 96-well plates (Corning) at a density of 2 × 10^3 cells per well and exposed to cubebin. The initial concentration tested was 500 μM, followed by 3-fold serial dilutions. Doxorubicin (15 μM) served as the positive control, while 0.5% DMSO was used as negative control. After 24 h of incubation at 37 °C with 5% CO2, MTT solution (Sigma) was added, and plates were incubated for an additional 4 h. Absorbance was measured at 595 nm using a spectrophotometer (Epoch, BioTek Instruments, Winooski, VT). Cell viability was expressed as a percentage relative to control wells. All assays were performed in triplicate and repeated independently three times.
as §2

[4] = tested on: Vero cells (monkey kidney epithelial cells); assay: Cytotoxicity assay (MTT), Vero cells; format: cell-based; conditions: at concentrations up to 200 μM
Procedure: as §3, §4, §2

[5] = Cytotoxicity assay (MTT), HaCaT cells; format: cell-based, human; conditions: human, HaCaT cells, MTT, 48 h exposure per figure legend (method: 24 h), read-out: mammalian cells CC50, human
Procedure: as §3, §4, §2

[6] = tested on: HaCaT cells (human keratinocytes); assay: Cytotoxicity assay (MTT), HaCaT cells; format: cell-based; conditions: at concentrations up to 200 μM
Procedure: as §3, §4, §2

[7] = tested on: Caenorhabditis elegans (Bristol N2 strain) L4 larvae; assay: Lethal toxicity assay in C. elegans; format: in vivo; conditions: for C. elegans LD50 (lethal concentration 50%): L4 larvae, immobility, 72 h exposure per b20 (method b64: 24 h); for toxicity in C. elegans: cubebin at concentrations up to 1000 μM
Procedure: The nematode C. elegans (Bristol N2 strain) was maintained on nematode growth medium (NGM) plates seeded with Escherichia coli […].
Synchronized fourth-stage larvae (L4) of C. elegans were transferred to 96-well plates containing M9 medium, with approximately 60 larvae per well. Cubebin was tested at concentrations starting from 1000 μM. Ivermectin (10 μM) served as the positive control, while 0.5% DMSO was used as the negative control. After 24 h of incubation at 21 °C, larval viability was evaluated based on movement. Toxicity was defined as ≥60% immobility.

[8] = 24 h, score 1 = immotile to 4 = highly active

SMILES	EC50 ([1]; 24 h) [µM]	selectivity index, L1 [1]	EC50 ([2]; Angiostrongylus cantonensis, 24 h) [µM]	selectivity index, L3 [2]	CC50 at 48 h [3] [µM]	cytotoxicity in Vero cells [4]	CC50 at 48 h [5] [µM]	cytotoxicity in HaCaT cells [6]	C. elegans LD50 (lethal concentration 50%) [7] [µM]	toxicity in C. elegans [7]	larval viability (motility) score, L1 [1, 8]	EC50 ([1]; first-stage (L1) larvae, 24 h, 21 °C, immobility, mean ± SD, three independent experiments) [µM]	larval viability (motility) score, L3 [2, 8]	EC50 ([2]; Angiostrongylus cantonensis, 24 h, infective third-stage (L3) larvae, 24 h, 21 °C, immobility, mean ± SD, three independent experiments) [µM]	EC50 ([2]; infective third-stage (L3) larvae, 24 h, 21 °C, immobility, mean ± SD, three independent experiments) [µM]	CC50 at 48 h ([3]; Vero cells (monkey kidney epithelial cells, ATCC CCL-81)) [µM]	CC50 at 48 h ([5]; HaCaT cells (human keratinocytes)) [µM]
CCCSc1ccc2nc(NC(=O)OC)[nH]c2c1 [albendazole, reference compound]	12.8 ± 1.3	>15.6	12.3 ± 1.9	>16.2	> 200	no cytotoxicity	> 200	no cytotoxicity	13.6 ± 1.1	potent toxicity	–	–	–	–	–	–	–
OC1OCC(Cc2ccc3c(c2)OCO3)C1Cc1ccc2c(c1)OCO2 (centres unmarked) [cubebin]	–	>42.5	–	>13.1	–	no cytotoxicity	–	no cytotoxicity	>1000	no observable toxicity; also recorded: nontoxic	1	4.7 ± 0.8	1	15.3	15.2 ± 0.9	> 200	> 200

— PMC12290638, “Cubebin, a Lignan Isolated from Drimys andina, Exhibits Potent and Selective Antiparasitic Activity against Angiostrongylus cantonensis” (ACS Omega, 2025)
